Results taken from US8962674B2 (Tokyo Institute of Technology, priority 2006, dated 2015).

Legend:
[1] = test system: cerebral cortex cells of embryonic Wistar rat; assay: Cytoprotection from Aβ1-42-induced cell cytotoxicity, MTT (Test Example 4); assay type: cell-based; settings: compound 24 hr, then 5 μM Aβ1-42 for 48 hr
Experimental: Cytoprotection from Aβ1-42-Induced Cell Cytotoxicity
Cerebral cortex was obtained from 19-20 day-old embryonic Wistar rat. The tissue was minced, dissociated using scalpel blades and Pasteur pipette, and centrifuged at 100 rpm. Precipitated cells were filtered using […] cell strainer, and single cells were prepared. These cells were suspended in Eagle's Minimum Essential Medium (EMEM) containing 10% Fetal bovine serum, and plated into 48-well tissue culture plates (Becton Dickinson) at 200 μL/well and 1.7×10^5 cells/cm^2. Cultures were incubated at 37° C. in a humidified atmosphere of 5% CO2.
After 3, 5, and 7 days in culture, the medium was replaced.
After 9 days, compounds were dissolved in DMSO and diluted in culture media so that the final concentration of DMSO in culture media was 0.1%, and each solution was added to each well at […] for 24 hr. The control solution contained 0.1% DMSO.
After 24 hr, Aβ1-42 was dissolved in a 0.1% NH3 solution at a concentration of 500 μM and diluted in culture media to a final concentration of 5 μM, and the Aβ solution was added to each well at […] for 48 hr. After 48 hr, cultures were treated with 0.5% MTT solution (Nacalai Tesque) for 35 min. The MTT solution was replaced with 2-propanol (200 μL), and the culture plates were shook to dissolve formazan. Absorption of the solution was measured at 570 nm.

[2] = biological target: recombinant human β-secretase (rhBACE-1) (Homo sapiens (Human), UniProt P56817); assay: β-Secretase enzyme inhibition assay (Test Example 1); assay type: biochemical; settings: compound solution 3 μM (FIG. 1 legend: 1.0 μM), 37° C., 2 hr, fluorescent substrate peptide
Experimental: β-Secretase Enzyme Inhibition Assay
Compounds were dissolved in dimethylsulfoxide (DMSO), and further diluted in 0.1 M sodium acetate buffer (with 150 mM sodium chloride, pH 4.5). The solution with no compound was used as a negative control. Then, 100 μL of these solutions (compound concentration: 3 μM), 1 μL of recombinant human β-secretase (rhBACE-1, R&D), and 5 μL of the fluorescent substrate peptide were mixed in a black 96-well plate (Nunc). After mixtures were incubated in the dark at 37° C. for 2 hr, the fluorescence intensities of the mixtures were measured by fluorescence microplate reader (Wallac) at 540 nm for excitation and at 590 nm for emission. The inhibition ratio was calculated as a percentage of the negative control. The sequence of the peptide was […] and labeled with fluorescent donor (Cy3) at Ser-1 and with quencher (Cy5Q) at Lys-9, respectively (Invitrogen).

recombinant human BACE-1 = recombinant human BACE-1 (Homo sapiens (Human), UniProt P56817); assay: Calculation of 50% inhibitory concentration (IC50) of BACE-1 (Test Example 5); assay type: biochemical; settings: 37° C., 2.5 hr, fluorescent substrate peptide
Experimental: Compounds were dissolved in 0.1 M sodium acetate buffer (with 150 mM sodium chloride, pH 4.5) to each concentration with DMSO (concentration of compounds: 0.3, 0.9, 3.0, 9.0, and 30.0). The final concentration of DMSO was 10%. The solution with no compound was used as a negative control. 15 μL of these solutions, recombinant human BACE-1 (1.0 U/ml, Invitrogen), and the fluorescent substrate peptide (2.5 nM) were mixed in a black 384-well plate (Costar). Then, mixtures were incubated in the dark at 37° C. for 2.5 hr. The fluorescence intensities of the mixtures were measured at 540 nm for excitation and at 590 nm for emission. The inhibition ratio was calculated as a percentage of the negative control. The sequence of the peptide was […] and labeled with Cy3 at Ser-1 and with Cy5Q at Lys-9. Final concentrations of compounds were as follows: […].

Chain of recombinant human β-secretase (rhBACE-1) (P56817 46-501): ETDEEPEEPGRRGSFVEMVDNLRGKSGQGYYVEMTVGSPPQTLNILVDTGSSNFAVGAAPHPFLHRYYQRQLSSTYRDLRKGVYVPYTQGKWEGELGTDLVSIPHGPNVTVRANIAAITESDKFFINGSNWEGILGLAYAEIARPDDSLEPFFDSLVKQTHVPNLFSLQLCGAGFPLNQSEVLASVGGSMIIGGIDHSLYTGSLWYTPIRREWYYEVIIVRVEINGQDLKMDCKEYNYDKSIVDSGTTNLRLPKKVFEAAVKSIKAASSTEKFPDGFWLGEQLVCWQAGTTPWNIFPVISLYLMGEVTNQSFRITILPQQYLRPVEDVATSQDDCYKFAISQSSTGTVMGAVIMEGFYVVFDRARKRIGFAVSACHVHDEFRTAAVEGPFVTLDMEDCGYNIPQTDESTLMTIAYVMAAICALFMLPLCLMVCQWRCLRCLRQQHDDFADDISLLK
Chain of recombinant human BACE-1 (P56817 46-501): as above

melting point [°C]	inhibition of BACE-1 enzyme activity (inhibitory activities (%) shown in FIG. 1) [2]	Compound	MEC, minimal effective concentration (cytoprotection) [1] [µM]	inhibitory effect on BACE-1 activity (IC50 shown in FIG. 2) (recombinant human BACE-1)
–	–	O=C(/C=C/c1ccc(O)cc1)CC(=O)/C=C/c1ccccc1O [CU080, (1E,6E)-1-(2-hydroxyphenyl)-7-(4-hydroxyphenyl)hepta-1,6-diene-3,5-dione]	1.0	–
238 to 241	–	O=C(/C=C/c1ccc(O)cc1)CC(=O)/C=C/c1cc(O)cc(O)c1 [CU092, (1E,6E)-1-(3,5-dihydroxyphenyl)-7-(4-hydroxyphenyl)hepta-1,6-diene-3,5-dione]	3.0	–
190 to 193	strongly inhibited	COc1ccc(/C=C/C(=O)CC(=O)/C=C/c2cc(O)cc(O)c2)cc1O [CU094, (1E,6E)-1-(3,5-dihydroxyphenyl)-7-(3-hydroxy-4-methoxyphenyl)hepta-1,6-diene-3,5-dione]	–	–
74 to 80	strongly inhibited	COc1ccc(/C=C/C(=O)CC(=O)/C=C/c2c(OC)cccc2OC)cc1O [CU104, (1E,6E)-1-(2,6-dimethoxyphenyl)-7-(3-hydroxy-4-methoxyphenyl)hepta-1,6-diene-3,5-dione]	–	–
215 to 220	strongly inhibited	O=C(/C=C/c1ccc(O)cc1)CC(=O)/C=C/c1c[nH]c2ccccc12 [CU110, (1E,6E)-1-(4-hydroxyphenyl)-7-(1H-indol-3-yl)hepta-1,6-diene-3,5-dione]	–	–
193 to 198	strongly inhibited	COc1ccc(/C=C/C(=O)CC(=O)/C=C/c2ccc(O)cc2)c2ccccc12 [CU116, (1E,6E)-1-(4-hydroxyphenyl)-7-(4-methoxynaphthalen-1-yl)hepta-1,6-diene-3,5-dione]	–	–
131 to 132	strongly inhibited	COc1cc(/C=C/C(=O)CC(=O)/C=C/c2cccn2C)ccc1O [CU121, (1E,6E)-1-(4-hydroxy-3-methoxyphenyl)-7-(1-methyl-1H-pyrrol-2-yl)hepta-1,6-diene-3,5-dione]	–	–
187 to 194	–	O=C(/C=C/c1ccc(O)cc1)CC(=O)/C=C/c1cc(O)ccc1[N+](=O)[O-] [CU131, (1E,6E)-1-(4-hydroxyphenyl)-7-(5-hydroxy-2-nitrophenyl)hepta-1,6-diene-3,5-dione]	–	inhibitory effect on BACE-1 activity at relatively low concentration
147 to 152	–	COc1cc(/C=C/C(=O)CC(=O)/C=C/c2cc(O)ccc2[N+](=O)[O-])ccc1O [CU132, (1E,6E)-1-(4-hydroxy-3-methoxyphenyl)-7-(5-hydroxy-2-nitrophenyl)hepta-1,6-diene-3,5-dione]	–	inhibitory effect on BACE-1 activity at relatively low concentration
107 to 111	–	COc1ccc(/C=C/C(=O)CC(=O)/C=C/c2cc(O)ccc2[N+](=O)[O-])cc1O [CU133, (1E,6E)-1-(3-hydroxy-4-methoxyphenyl)-7-(5-hydroxy-2-nitrophenyl)hepta-1,6-diene-3,5-dione]	–	inhibitory effect on BACE-1 activity at relatively low concentration
190 to 192	strongly inhibited	COc1ccc(/C=C/C(=O)CC(=O)/C=C/c2cccc(O)c2OC)cc1O [CU176, (1E,6E)-1-(3-hydroxy-2-methoxyphenyl)-7-(3-hydroxy-4-methoxyphenyl)hepta-1,6-diene-3,5-dione]	–	–
222 to 226	strongly inhibited	O=C(/C=C/c1ccc(O)cc1)CC(=O)/C=C/c1ccc2[nH]ccc2c1 [CU187, (1E,6E)-1-(4-hydroxyphenyl)-7-(1H-indol-5-yl)hepta-1,6-diene-3,5-dione]	–	–
238 to 243	strongly inhibited	O=C(/C=C/c1ccc(O)cc1)CC(=O)/C=C/c1ccc2cc[nH]c2c1 [CU189, (1E,6E)-1-(4-hydroxyphenyl)-7-(1H-indol-6-yl)hepta-1,6-diene-3,5-dione]	–	inhibitory effect on BACE-1 activity at relatively low concentration
182 to 185	strongly inhibited	COc1ccc(/C=C/C(=O)CC(=O)/C=C/c2ccc3[nH]ccc3c2)cc1O [CU193, (1E,6E)-1-(3-hydroxy-4-methoxyphenyl)-7-(1H-indol-5-yl)hepta-1,6-diene-3,5-dione]	–	–
217 to 222	strongly inhibited	CN(C)c1ccc(/C=C/C(=O)CC(=O)/C=C/c2ccc(O)cc2)c([N+](=O)[O-])c1 [CU194, (1E,6E)-1-(4-dimethylamino-2-nitrophenyl)-7-(4-hydroxyphenyl)hepta-1,6-diene-3,5-dione]	–	–
228 to 232	–	O=C(/C=C/c1ccc(O)cc1)CC(=O)/C=C/c1c[nH]c2cccc([N+](=O)[O-])c12 [CU461, (1E,6E)-1-(4-hydroxyphenyl)-7-(4-nitro-1H-indol-3-yl)hepta-1,6-diene-3,5-dione]	–	inhibitory effect on BACE-1 activity at relatively low concentration
168 to 172	–	O=C(/C=C/c1ccc(O)cc1)CC(=O)/C=C/c1cc(OCc2ccccc2)ccc1[N+](=O)[O-] [CU475, (1E,6E)-1-(5-benzyloxy-2-nitrophenyl)-7-(4-hydroxyphenyl)hepta-1,6-diene-3,5-dione]	–	inhibitory effect on BACE-1 activity at relatively low concentration
45 to 50	–	O=C(/C=C/c1ccc2ccn(Cc3ccccc3)c2c1)CC(=O)CCc1ccc(O)cc1 [CU520, (E)-1-(1-benzyl-1H-indol-6-yl)-7-(4-hydroxyphenyl)hept-1-ene-3,5-dione]	–	inhibitory effect on BACE-1 activity at relatively low concentration
62 to 70	–	O=C(/C=C/c1cc(O)ccc1[N+](=O)[O-])CC(=O)CCc1ccc(O)cc1 [CU530, (E)-1-(5-hydroxy-2-nitrophenyl)-7-(4-hydroxyphenyl)hept-1-ene-3,5-dione]	–	inhibitory effect on BACE-1 activity at relatively low concentration
–	–	O=C(/C=C/c1ccc(O)cc1)CC(=O)/C=C/c1cc(OCc2ccccc2)ccc1Br [CU531, (1E,6E)-1-(5-benzyloxy-2-bromophenyl)-7-(4-hydroxyphenyl)hepta-1,6-diene-3,5-dione]	–	inhibitory effect on BACE-1 activity at relatively low concentration
182 to 186	–	O=C(/C=C/c1ccc(O)cc1)CC(=O)/C=C/c1cc(O)ccc1Br [CU532, (1E,6E)-1-(2-bromo-5-hydroxyphenyl)-7-(4-hydroxyphenyl)hepta-1,6-diene-3,5-dione]	–	inhibitory effect on BACE-1 activity at relatively low concentration
–	–	COc1cc(/C=C/C(=O)CC(=O)/C=C/c2ccc(O)c(OC)c2)ccc1O [curcumin, reference compound]	10	–

Compound	melting point [°C]	inhibition of BACE-1 enzyme activity (inhibitory activities (%) shown in FIG. 1) [2]	MEC, minimal effective concentration (cytoprotection) [1] [µM]	inhibitory effect on BACE-1 activity (IC50 shown in FIG. 2) (recombinant human BACE-1)
O=C(/C=C/c1cc(O)ccc1[N+](=O)[O-])CC(=O)/C=C/c1cc(O)ccc1[N+](=O)[O-] [CU381, (1E,6E)-1,7-bis(5-hydroxy-2-nitrophenyl)hepta-1,6-diene-3,5-dione]	253 to 262	–	–	inhibitory effect on BACE-1 activity at relatively low concentration
